Experimental data published in US9409975B2, “Antibody binding microbial heparin binding motif to retard or prevent microbial biofilm formation on implanted medical devices” (priority 2012, dated 2016).

Test system: C. albicans
Assay: Heparin-binding ELISA assay: C. albicans binding to solid-phase heparin, desulfated heparin analogs, chondroitin sulfate or dermatan sulfate
Assay type: cell-based, Candida albicans
Conditions: equimolar amounts with respect to heparin
Experimental: To measure the binding of C. albicans to solid-phase heparin, a heparin-binding ELISA assay was developed, as follows. A single colony of each C. albicans wild type or mutant strain from a YPD plate was inoculated into 3 ml YPD medium and incubated overnight at 30° C. with shaking at 225 rpm. Sigma heparin (fresh solution made daily), diluted to 25 units/ml in autoclaved, sterile-filtered PBS was added as 0.1 ml aliquots to each well of an allyl amine-coated 96-well heparin binding microtiter plate (BD Biosciences). The plate was incubated at room temperature overnight in the dark (50). In the morning, the plate was washed with acetate buffer (100 mM NaCl, […], 0.2% Tween 20, pH 7.2), incubated with 3% bovine serum albumin (BSA) in PBS at 30° C. for 1 hour, then washed with PBS. In the meantime, overnight cultures of C. albicans were subcultured by dilution to OD600 of 0.2 in 25 ml of YPD, and grown at 30° C. to mid-log phase (OD600 0.6-0.7). […] After 45 minutes, absorbance at 595 nm was read on a Beckman Coulter DTX 880. […]
The ELISA assay used a commercially available 96-well microtiter plate coated with polymerized allylamine (BD Biosciences) (27), in which wells were inoculated with 2.5 units (12.5 μg) heparin in 100 μl phosphate buffered saline (PBS) per well. […] The color change was read spectrophotometrically at absorbance of 595 nm.

Substance	binding of C. albicans versus binding to heparin, in words
chondroitin sulfate	equivalent
dermatan sulfate	reduced
